Measurements as given in article PMC10525924, “Engineering and Purification of Microcin C7 Variants Resistant to Trypsin and Analysis of Their Biological Activity” (Antibiotics, 2023).
≈ marks a conversion by molar mass, not a printed value. Where a SMILES comes first, the peptide text is derived from it.

Experiments:
E. coli K88 = assay: microbe, parasite or virus in culture; type: cell-based; details: for Diameters of the inhibition zones, Trypsin-Untreated Group, K88: 200 μL fermentation supernatant, 1 × 10^5 CFU/mL, 4 °C 1 h then 37 °C 24 h, chloramphenicol 100 μL of 0.25 μg/mL
Method: (§1) The pH was adjusted to 6.8.
(§2) The fermentation supernatants and pure products were used to characterize the bacteriostatic effects of McC variants by the agar diffusion and microdilution methods. Yej^+rimL^− and E. coli K88 indicator bacteria were applied. The serotype of E. coli K88 was O149:K91, K88ac, a clinically isolated strain, and provided by the College of Veterinary Medicine, China Agricultural University. The indicated bacteria were diluted to 1 × 10^5 CFU/mL and added to plate medium cooled to 50 °C. Two hundred microliters of supernatants were added to each dish, and diffusion was performed at 4 °C for 1 h. After incubation at 37 °C for 24 h, the diameters of the inhibition zones were determined. One hundred microliters of 0.25 μg/mL chloramphenicol was used as a control. The MICs of the pure McC variants were determined by microdilution in a sterilized 96-well microplate. The McC variants were serially diluted 2 times in 96-well microplates with LB medium. The concentrations of the McC variants ranged from 0.125 to 100 µg/mL. Each well was inoculated with 10 μL of overnight bacterial culture at a concentration of 1.0 × 10^5 CFU/mL and incubated at 37 °C for 24 h. A microplate reader was used to automatically observe changes in absorbance at 600 nm in order to monitor bacterial growth. A positive control group (including inoculated medium) and a negative control group (with medium only) were included. The MIC was determined as the lowest concentration of McC variant that inhibited bacterial growth (preventing an increase in the absorbance reading). All tests were performed in triplicate.

Yej^+rimL^− strain [1] = assay: organism not typed; type: cell-based; details: for Diameters of the inhibition zones, Trypsin-Treated Group, Yej^+rimL^− / bacteriostatic activity after trypsin treatment, Yej^+rimL^−: supernatant treated with trypsin 50 μg/mL, 37 °C, 3 h; for Diameters of the inhibition zones, Trypsin-Treated Group, Yej^+rimL^−: pH 6.8, 37 °C 24 h; for Diameters of the inhibition zones, Trypsin-Treated Group, Yej^+rimL^− / bacteriostatic activity after trypsin treatment, Yej^+rimL^− / Diameters of the inhibition zones, Trypsin-Untreated Group, Yej^+rimL^−: agar diffusion; for Diameters of the inhibition zones, Trypsin-Treated Group, Yej^+rimL^− / Diameters of the inhibition zones, Trypsin-Untreated Group, Yej^+rimL^−: dash = no zone; for Diameters of the inhibition zones, Trypsin-Untreated Group, Yej^+rimL^−: 200 μL fermentation supernatant, 1 × 10^5 CFU/mL, 4 °C 1 h then 37 °C 24 h, chloramphenicol 100 μL of 0.25 μg/mL
Excerpt: To analyze the antimicrobial ability of the variants, we measured the inhibition zones of all 21 variants by the agar diffusion method. The peptide moiety of McC was recognized by a YejABEf-peptide transporter. The rimL contains an acetyltransferase domain homologous to MccE which can detoxify and provide resistance to McC [17]. The overexpression of the YejABEF gene cluster and rimL gene knockout made the strain hypersensitive to McC. Therefore, the Yej^+rimL^− strain was selected as the sensitive indicator bacterial strain.
as §1, §2

Yej^+rimL^− strain [2] = type: cell-based; details: HPLC-purified variants; microdilution in LB, 96-well; 0.125 to 100 µg/mL; 1.0 × 10^5 CFU/mL; 37 °C 24 h; absorbance 600 nm; triplicate
Method: To accurately characterize the bacteriostatic abilities of the variants, the MICs of the pure McC variants toward the McCsensitive strain Yej^+rimL^− were determined. The MICs of all variants were lower than that of wild-type McC. From smallest to largest MIC, the above five variants were in the following order: R2A, R2T, R2Q, R2S, and R2H. […] Although the diameter of the inhibitory zone of R2M was smaller than those of the above five variants, the bacteriostatic ability of R2M was second only to R2T/R2Q, and the MIC was 50 μg/mL.
as §2

[3] = Remaining amount by RP-HPLC after pepsin treatment; type: in vitro ADME; details: isolated enzyme pepsin; pepsin treated for 3 h; read-out RP-HPLC; Table S2
Method: (§3) To test whether the variants were tolerant to trypsin or other digestive enzymes, the amount of the remaining McC and its analogues remaining was determined by RP-HPLC after trypsin, pepsin, and chymotrypsin treated for 3 h (Table S2), and the inhibition zones of trypsin-treated variants were tested using the same method (Table 2).

[4] = Remaining amount by RP-HPLC after chymotrypsin treatment; type: in vitro ADME; details: isolated enzyme chymotrypsin; chymotrypsin treated for 3 h; read-out RP-HPLC; Table S2
Method: as §3

[5] = HPLC retention time according to hydrophobicity; type: physicochemical; details: chromatographic, C18 5 μm 9.4 × 250 mm; A 0.1% trichloroacetic acid, B 0.1% trichloroacetic acid with 90% acetonitrile; linear 5% B to 50% B; 1 mL/min; 35 °C; 280 nm; varies according to hydrophobicity
Method: To find the separation peaks of the variants, wildtype McC and blank control fermentation broth samples were tested by HPLC. The separation peaks with obvious differences (those with retention times of 11 min and 17 min) were purified and the antimicrobial activity was determined. […] Therefore, the molecular weight was further analyzed by mass spectrometry, and the separation peak at approximately 17 min was confirmed to be that of the desired purified McC. Since the mutations in this study involved only one amino acid and had few effects on the properties of the peptides, we predicted that the separation peaks of the variants should fluctuate around approximately 17 min according to their hydrophobicity. […] The purity of the purified variants was determined by HPLC to be greater than 80% (Table 3).
The lyophilized supernatants were dissolved in deionized water, filtered through 0.22 μm aqueous-phase filter membranes, and purified by high-performance liquid chromatography (HPLC, Agilent Technologies Inc., Palo Alto, CA, USA) with C18 column (5 μm 9.4 × 250 mm, Agilent Technologies Inc., Palo Alto, CA, USA). The mobile phase was composed of 0.1% (v/v) trichloroacetic acid (solvent A) and 0.1% (v/v) trichloroacetic acid with 90% (v/v) acetonitrile (solvent B). A linear gradient from 95% A/5% B to 50% A/50% B was used with a flow rate of 1 mL/min, a sample volume of 10 μL, a column temperature of 35 °C, and a detection wavelength of 280 nm. Electrospray ionization mass spectrometry (ESI-MS) was used to compare the McC variant masses with the expected masses. The relationships between the relative abundances and the mass-to-charge ratios (m/z) of the ions were determined to confirm the identities of the experimentally produced McC variants.

Structure (SMILES)	zone of inhibition at 0.25 µg/mL (E. coli K88; Escherichia coli, K88, read-out: Diameters of the inhibition zones, Trypsin-Untreated Group, K88)	Diameters of the inhibition zones, Trypsin-Treated Group, K88 (E. coli K88; supernatant treated with trypsin 50 μg/mL, 37 °C, 3 h, pH 6.8, agar diffusion, 37 °C 24 h, dash = no zone)	zone of inhibition at 0.25 µg/mL (Yej^+rimL^− strain [1]; read-out: Diameters of the inhibition zones, Trypsin-Untreated Group, Yej^+rimL^−)	Diameters of the inhibition zones, Trypsin-Treated Group, Yej^+rimL^− (Yej^+rimL^− strain [1])	MIC (Yej^+rimL^− strain [2])	remaining at 3 h [3]	remaining at 3 h [4]	Retention Time [5]	bacteriostatic activity after trypsin treatment, Yej^+rimL^− (Yej^+rimL^− strain [1])	Diameters of the inhibition zones, Trypsin-Untreated Group, Yej^+rimL^− (Yej^+rimL^− strain [1])	Diameters of the inhibition zones, Trypsin-Untreated Group, K88 (E. coli K88; agar diffusion, dash = no zone)
O=C(N[C@H](CO)[C@H](O)c1ccc([N+](=O)[O-])cc1)C(Cl)Cl [Chloramphenicol, reference compound]	23.6 mm	22.79 mm	23.4 mm	20.96 mm							
CSCC[C@H](NC=O)C(=O)N[C@@H](CC(=O)O)C(=O)N[C@H](C(=O)NCC(=O)N[C@@H](CC(N)=O)C(=O)N[C@@H](C)C(=O)N[C@@H](CC(=O)O)C(=O)NP(=O)(OCCCN)OC[C@H]1O[C@@H](n2cnc3c(N)ncnc32)[C@H](O)[C@@H]1O)[C@@H](C)O (some centres unmarked) [R2D] (HELM PEPTIDE1{[O=C[*:2]].M.D.T.G.N.A.[NCCCOP(=O)(NC(=O)[C@H](CC(=O)O)N[*:1])OC[C@H]1O[C@@H](n2cnc3c(N)ncnc32)[C@H](O)[C@@H]1O]}$$$$V2.0)				14.11 mm	>100 µg/mL	83.9 ± 1.42%	42.4 ± 1.07%	17.625 min	exhibited antibacterial effects	17.71 mm	
CSCC[C@H](NC=O)C(=O)N[C@@H](Cc1ccccc1)C(=O)N[C@H](C(=O)NCC(=O)N[C@@H](CC(N)=O)C(=O)N[C@@H](C)C(=O)N[C@@H](CC(=O)O)C(=O)NP(=O)(OCCCN)OC[C@H]1O[C@@H](n2cnc3c(N)ncnc32)[C@H](O)[C@@H]1O)[C@@H](C)O (some centres unmarked) [R2F] (HELM PEPTIDE1{[O=C[*:2]].M.F.T.G.N.A.[NCCCOP(=O)(NC(=O)[C@H](CC(=O)O)N[*:1])OC[C@H]1O[C@@H](n2cnc3c(N)ncnc32)[C@H](O)[C@@H]1O]}$$$$V2.0)				10.95 mm		82.3 ± 0.94%	41.1 ± 0.98%			13.05 mm	14.34 mm
CSCC[C@H](NC=O)C(=O)NCC(=O)N[C@H](C(=O)NCC(=O)N[C@@H](CC(N)=O)C(=O)N[C@@H](C)C(=O)N[C@@H](CC(=O)O)C(=O)NP(=O)(OCCCN)OC[C@H]1O[C@@H](n2cnc3c(N)ncnc32)[C@H](O)[C@@H]1O)[C@@H](C)O (some centres unmarked) [R2G] (HELM PEPTIDE1{[O=C[*:2]].M.G.T.G.N.A.[NCCCOP(=O)(NC(=O)[C@H](CC(=O)O)N[*:1])OC[C@H]1O[C@@H](n2cnc3c(N)ncnc32)[C@H](O)[C@@H]1O]}$$$$V2.0)				14.15 mm	>100 µg/mL	85.89 ± 0.79%	45.6 ± 1.31%	17.253 min	exhibited antibacterial effects	18.86 mm	
CSCC[C@H](NC=O)C(=O)N[C@@H](CCCCN)C(=O)N[C@H](C(=O)NCC(=O)N[C@@H](CC(N)=O)C(=O)N[C@@H](C)C(=O)N[C@@H](CC(=O)O)C(=O)NP(=O)(OCCCN)OC[C@H]1O[C@@H](n2cnc3c(N)ncnc32)[C@H](O)[C@@H]1O)[C@@H](C)O (some centres unmarked) [R2K] (HELM PEPTIDE1{[O=C[*:2]].M.K.T.G.N.A.[NCCCOP(=O)(NC(=O)[C@H](CC(=O)O)N[*:1])OC[C@H]1O[C@@H](n2cnc3c(N)ncnc32)[C@H](O)[C@@H]1O]}$$$$V2.0)				0 mm		87.69 ± 0.68%	41.4 ± 0.73%			20.91 mm	16.95 mm
CSCC[C@H](NC=O)C(=O)N[C@@H](CC(C)C)C(=O)N[C@H](C(=O)NCC(=O)N[C@@H](CC(N)=O)C(=O)N[C@@H](C)C(=O)N[C@@H](CC(=O)O)C(=O)NP(=O)(OCCCN)OC[C@H]1O[C@@H](n2cnc3c(N)ncnc32)[C@H](O)[C@@H]1O)[C@@H](C)O (some centres unmarked) [R2L] (HELM PEPTIDE1{[O=C[*:2]].M.L.T.G.N.A.[NCCCOP(=O)(NC(=O)[C@H](CC(=O)O)N[*:1])OC[C@H]1O[C@@H](n2cnc3c(N)ncnc32)[C@H](O)[C@@H]1O]}$$$$V2.0)				0 mm	>100 µg/mL	79.25 ± 0.62%	39.2 ± 0.75%	19.425 min		14.40 mm	
CSCC[C@H](NC=O)C(=O)N[C@H](C(=O)N[C@H](C(=O)NCC(=O)N[C@@H](CC(N)=O)C(=O)N[C@@H](C)C(=O)N[C@@H](CC(=O)O)C(=O)NP(=O)(OCCCN)OC[C@H]1O[C@@H](n2cnc3c(N)ncnc32)[C@H](O)[C@@H]1O)[C@@H](C)O)C(C)C (some centres unmarked) [R2V] (HELM PEPTIDE1{[O=C[*:2]].M.V.T.G.N.A.[NCCCOP(=O)(NC(=O)[C@H](CC(=O)O)N[*:1])OC[C@H]1O[C@@H](n2cnc3c(N)ncnc32)[C@H](O)[C@@H]1O]}$$$$V2.0)				14.62 mm	50 µg/mL (≈ 44.6 µM)	79 ± 1.24%	39.1 ± 1.05%	18.151 min	exhibited antibacterial effects	21.34 mm	
